Measured values from patent publication US20240294551A1 (AMGEN INC., priority 2022, published 2024).
Counter-ions that a name gives are not always drawn. Like-named read-outs stand apart in the source and are kept apart here.

Experiments:
[1] = molecular target: GDP-bound KRAS protein (aa 1-169), containing both G12D and C118A amino acid substitutions (Homo sapiens (Human), UniProt P01116, C118A/G12D); experiment: KRAS G12D Coupled Nucleotide Exchange Assay; format: biochemical
[2] = tested on: AsPC-1 cells; experiment: AsPC-1 CTG Assay (CellTiter-Glo cell viability); format: cell-based, human; conditions: Homo sapiens, ASPC1, 72 h, first value of the cell, read-out: G12D/C/V Cell Proliferation CTG (72 h) AsPC-1
Method in brief: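 Human pancreatic AsPC-1 or colon SW620 cells in RPMI 1640 with 10% FBS, seeded overnight, then exposed to serially diluted compound for 72 h at 37 °C. CellTiter-Glo luminescence normalized to DMSO control; IC50 from a 4-parameter logistic model.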

[3] = tested on: Phosphorylation of ERK1/2 in AsPC-1 cells; experiment: Phospho-ERK1/2 MSD Assay; format: cell-based, human; conditions: Homo sapiens, ASPC1, 2 h
Method in brief: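 Read-out: MSD electrochemiluminescent detection of phosphorylated ERK1/2 in whole-cell lysates, fitted to a 4-parameter logistic curve for IC50. Prior to lysis, AsPC-1 cells (25,000 per well) received a 2 h compound dose-response at 37 °C.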

[4] = molecular target: His-tagged KRAS G12D protein (Homo sapiens (Human), UniProt P01116, G12D); experiment: KRAS G12D TR-FRET Assay; format: binding
Method in brief: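 His-tagged KRAS G12D (diluted to 20 nM in pH 7.4 HEPES buffer with 10 mM MgCl2 and 10 μM GDP) was preincubated with titrated compound for 30 min at room temperature. Biotinylated KRPep-2d peptide (diluted to 20 nM) was then added for 1 h, and displacement was monitored by TR-FRET.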

[5] = read-out: KRAS G12D Coupled Exchange IC50
[6] = read-out: 2 h p-ERK (AsPC-1 cells), IC50
[7] = read-out: KRAS G12D Binding IC50
[8] = 2 hours compound pre-incubation, read-out: KRAS G12D Coupled Exchange
[9] = read-out: 2 h p-ERK (AsPC-1 cells)
[10] = TR-FRET, read-out: KRAS G12D Binding

Sequence of GDP-bound KRAS protein (aa 1-169), containing both G12D and C118A amino acid substitutions (P01116 other isoform, or with tags, fused parts or gaps G12D/C118A): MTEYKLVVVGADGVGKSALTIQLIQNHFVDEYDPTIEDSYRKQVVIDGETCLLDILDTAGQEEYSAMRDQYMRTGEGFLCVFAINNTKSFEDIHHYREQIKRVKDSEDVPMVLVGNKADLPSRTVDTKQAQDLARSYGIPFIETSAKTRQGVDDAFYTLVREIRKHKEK
Sequence of His-tagged KRAS G12D protein (P01116 other isoform, or with tags, fused parts or gaps G12D): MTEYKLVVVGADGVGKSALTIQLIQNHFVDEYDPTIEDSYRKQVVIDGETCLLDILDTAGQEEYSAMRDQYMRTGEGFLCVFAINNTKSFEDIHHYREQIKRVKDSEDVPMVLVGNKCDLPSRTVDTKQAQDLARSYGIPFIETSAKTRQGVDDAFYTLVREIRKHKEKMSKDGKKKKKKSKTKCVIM

| Structure (SMILES) | IC50 [1, 5] [µM] | IC50 ([2]; AsPC-1, 72 h) [µM] | IC50 [3, 6] [µM] | IC50 [4, 7] [µM] | IC50 [1, 8] [µM] | IC50 ([2]; AsPC-1 cells (G12D), 72 h) [µM] | IC50 [3, 9] [µM] | IC50 [4, 10] [µM] |
| --- | --- | --- | --- | --- | --- | --- | --- | --- |
| C[C@@]12CCCN(C1)c1nc(OC[C@@]34CCCN3C[C@H](F)C4)nc3c(F)c(ncc13)-c1cccc3ccc(F)c(c13)CCC(F)C(=O)N2 (mixture of isomers) [Example 11] | 0.008 | 1.05 | 0.155 | 0.012 | – | – | – | – |
| Cc1cc2[nH]ncc2c2c1CCC[C@H](O)CC[C@H]1CCCN(C1)c1nc(OC[C@@]34CCCN3C[C@H](F)C4)nc3c(F)c-2ncc13 [Example 238, (14S,17R)-30-fluoro-24-(((2R,7aS)-2-fluorotetrahydro-1H-pyrrolo[1,2-a]pyrrol-7a(5H)-yl)methoxy)-9-methyl-5,6,21,23,25,29-hexaazahexacyclo[24.3.1.1˜17,21˜.0˜2,10˜.0˜3,7˜.0˜22,27˜]hentriaconta-1(30),2,4,7,9,22,24,26,28-nonaen-14-ol] | 0.024 | 5 | 0.861 | 0.045 | – | – | – | – |
| CC(=O)n1ncc2c3c(c(Cl)cc21)CCCOC(=O)O[C@@H]1COCCN(C1)c1nc(OC[C@@]24CCCN2C[C@H](F)C4)nc2c(F)c-3ncc12 [Example 213, (26S)-15-Acetyl-18-chloro-32-fluoro-4-(((2R,7aS)-2-fluorotetrahydro-1H-pyrrolo[1,2-a]pyrrol-7a(5H)-yl)methoxy)-23,25,28-trioxa-1,3,5,9,14,15-hexaazahexacyclo[24.4.1.1˜6,10˜.0˜2,7˜.0˜11,19˜.0˜12,16˜]dotriaconta-2,4,6(32),7,9,11,13,16,18-nonaen-24-one] | 0.015 | 0.005 | 0.0049 | 0.046 | – | – | – | – |
| Cc1cc2[nH]ncc2c2c1/C=C\COC(=O)O[C@@H]1CCCN(C1)c1nc(OC[C@@]34CCCN3C[C@H](F)C4)nc3c(F)c-2ncc13 (single isomer, unassigned) [Example 123] | 0.004 | 0.65 | 0.104 | 0.008 | – | – | – | – |
| O=C1CCCc2c(F)ccc3cc(O)cc(c23)-c2ncc3c(nc(OC[C@@]45CCCN4C[C@H](F)C5)nc3c2F)N2CCC[C@H](C2)O1 [Example 41, (15R)-22,31-Difluoro-8-(((2R,7aS)-2-fluorotetrahydro-1H-pyrrolo[1,2-a]pyrrol-7a(5H)-yl)methoxy)-27-hydroxy-16-oxa-3,7,9,11-tetraazahexacyclo[19.7.1.1˜2,6˜.1˜11,15˜.0˜5,10˜.0˜25,29˜]hentriaconta-1(28),2(31),3,5,7,9,21,23,25(29),26-decaen-17-one 2,2,2-trifluoroacetate salt] | 0.002 | 0.047 | 0.003 | 0.003 | – | – | – | – |
| C[C@@]12CCCN(C1)c1nc(OC[C@@]34CCCN3C[C@H](F)C4)nc3c(F)c(ccc13)-c1cc(O)cc3ccc(F)c(c13)CCCC(=O)N2 [Example 16, (15R)-22,31-Difluoro-8-(((2R,7aS)-2-fluorotetrahydro-1H-pyrrolo[1,2-a]pyrrol-7a(5H)-yl)methoxy)-27-hydroxy-15-methyl-7,9,11,16-tetraazahexacyclo[19.7.1.1˜2,6˜.1˜11,15˜.0˜5,10˜.0˜25,29˜]hentriaconta-1(28),2(31),3,5,7,9,21,23,25(29),26-decaen-17-one bis(2,2,2-trifluoroacetate)] | 0.005 | 1.2 | 0.092 | 0.006 | – | – | – | – |
| Fc1c2ncc3c(nc(OC[C@@]45CCCN4C[C@H](F)C5)nc13)N1CCC[C@@H](CCOCCCc3c(Cl)cc4[nH]ncc4c3-2)C1 [Example 139] | 0.003 | 0.91 | 0.114 | 0.006 | – | – | – | – |
| Cc1cc2[nH]ncc2c2c1CCCOC(=O)C[C@@H]1CCCN(C1)c1nc(OC[C@@]34CCCN3C[C@H](F)C4)nc3c(F)c-2ncc13 [Example 40] | 0.003 | 0.09 | 0.008 | 0.005 | – | – | – | – |
| O=C1OCCC2CCc3cc4[nH]ncc4c(c32)-c2ncc3c(nc(OC[C@@]45CCCN4C[C@H](F)C5)nc3c2F)N2CCC[C@H](C2)O1 (stereo partly drawn) [Example 125] | 0.005 | 0.41 | 0.066 | 0.009 | – | – | – | – |

Now from value to molecule:

| IC50 [1, 5] [µM] | IC50 ([2]; AsPC-1, 72 h) [µM] | IC50 [3, 6] [µM] | IC50 [4, 7] [µM] | IC50 [1, 8] [µM] | IC50 ([2]; AsPC-1 cells (G12D), 72 h) [µM] | IC50 [3, 9] [µM] | IC50 [4, 10] [µM] | Structure (SMILES) |
| --- | --- | --- | --- | --- | --- | --- | --- | --- |
| – | – | – | – | 0.003 | 0.386 | 0.289 | 0.005 | CN(C)CC1(COc2nc3c4cnc(c(F)c4n2)-c2c(c(Cl)cc4[nH]ncc24)CCCCOCC2(F)CCCCN3C2)CC1 (stereo in doubt) [Example 401, 1-(1-((((26S)-18-chloro-26,32-difluoro-24-oxa-1,3,5,9,14,15-hexaazahexacyclo[24.4.1.1~6,10~.0~2,7~.0~11,19~.0~12,16~]dotriaconta-2,4,6,8,10(32),11,13,16,18-nonaen-4-yl)oxy)methyl)cyclopropyl)-N,N-dimethylmethanamine] |
| 0.001 | 0.082 | 0.0052 | 0.002 | – | – | – | – | O=C1OCCCc2c(Cl)cc(O)cc2-c2ncc3c(nc(OC[C@@]45CCCN4C[C@H](F)C5)nc3c2F)N2CCOC[C@H](C2)O1 [Example 355, (23S)-15-chloro-29-fluoro-4-(((2R,7aS)-2-fluorotetrahydro-1H-pyrrolo[1,2-a]pyrrol-7a(5H)-yl)methoxy)-13-hydroxy-20,22,25-trioxa-1,3,5,9-tetraazapentacyclo[21.4.1.1~6,10~.0~2,7~.0~11,16~]nonacosa-2,4,6,8,10(29),11,13,15-octaen-21-one] |
| 0.003 | 0.115 | 0.0154 | 0.005 | – | – | – | – | CN(C)CC1(COc2nc3c4cnc(c(F)c4n2)-c2c(c(Cl)cc4[nH]ncc24)CCCOC(=O)O[C@]2(C)COCCN3C2)CC1 (single isomer, unassigned) [Example 331] |
| 0.013 | 0.953 | 0.0452 | 0.022 | – | – | – | – | O=C1OCCc2c(Cl)cc3[nH]ncc3c2-c2cc3nc(OC[C@@]45CCCN4C[C@H](F)C5)nc(c3cn2)N2CCC[C@]3(C2)C[C@H](C3)O1 [Example 343, (1R,3S)-10-chloro-24-(((2R,7aS)-2-fluorotetrahydro-1H-pyrrolo[1,2-a]pyrrol-7a(5H)-yl)methoxy)-4,6-dioxa-13,14,19,23,25,27-hexaazaheptacyclo[25.3.1.1~1,3~.1~18,22~.0~9,17~.0~12,16~.0~21,26~]tritriaconta-9,11,14,16,18(32),19,21,23,25-nonaen-5-one] |
| 0.002 | 5 | 1.1 | 0.003 | – | – | – | – | O=C1CCCCc2c(Cl)cc3[nH]ncc3c2-c2ncc3c(nc(OC[C@@]45CCCN4C[C@H](F)C5)nc3c2F)N2CCC[C@]3(C2)C[C@H](C3)N1 [Example 273, (1S,3R)-11-chloro-33-fluoro-25-(((2R,7aS)-2-fluorotetrahydro-1H-pyrrolo[1,2-a]pyrrol-7a(5H)-yl)methoxy)-4,14,15,20,24,26,28-heptaazaheptacyclo[26.3.1.1~1,3~.1~19,23~.0~10,18~.0~13,17~.0~22,27~]tetratriaconta-10,12,15,17,19(33),20,22,24,26-nonaen-5-one] |
| 0.011 | 1.21 | 0.462 | 0.019 | – | – | – | – | O=C1OCCCc2c(Cl)cc3[nH]ncc3c2-c2ncc3c(nc(OC[C@@]45CCCN4C[C@H](F)C5)nc3c2F)N2CCOCC3(CC(C3)O1)C2 [Example 313] |
| – | – | – | – | 0.004 | 0.174 | 0.0412 | 0.005 | CN(C)CC1(COc2nc3c4cnc(c(F)c4n2)-c2c(c(Cl)cc4[nH]ncc24)CCCCO[C@H]2C[C@]4(CCCN3C4)C2)CC1 [Example 405, 1-(1-((((1S,3R)-10-chloro-32-fluoro-4-oxa-13,14,19,23,25,27-hexaazaheptacyclo[25.3.1.1~1,3~.1~18,22~.0~9,17~.0~12,16~.0~21,26~]tritriaconta-9,11,14,16,18(32),19,21,23,25-nonaen-24-yl)oxy)methyl)cyclopropyl)-N,N-dimethylmethanamine] |
| – | – | – | – | 0.011 | 2.06 | 0.35 | 0.016 | Fc1c2ncc3c(nc(OC[C@@]45CCCN4C[C@H](F)C5)nc13)N1CCOC[C@@H](Cc3ncc(o3)CCc3c(Cl)cc4[nH]ncc4c3-2)C1 (single isomer, unassigned) [Example 376] |
| – | – | – | – | 0.006 | 0.109 | 0.0223 | 0.01 | O=C1CCCCc2c(Cl)cc3[nH]ncc3c2-c2ncc3c(nc(OC[C@@]45CCCN4C[C@H](F)C5)nc3c2F)N2CCOCC(C2)C1O (mixture of isomers) [Example 384] |
